Values belong to the compound of their own block, whether it stands above or below them.
System: 843782-103-R-J1-PDC complex spheroid viability
Assay: Anticancer human tumor 843782-103-R-J1-PDC patient-derived lung adenocarcinoma cell line growth inhibition [RAS]
Settings: for IC50: curve of first compound; for viability, T/C: stronger effect = lower value
Procedure, shortened: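 Tumour cells grown as complex spheroids with HUVEC endothelial cells and mesenchymal stem cells, treated with RAS pathway inhibitor combinations. Each agent spans half-log steps from near clinical Cmax, or 10 microM where Cmax is unknown.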

[1] = second compound 0.00316 µM, first compound 0.00316 µM
[2] = second compound 0.00316 µM, first compound 0.01 µM
[3] = second compound 0.00316 µM, first compound 0.0316 µM
[4] = second compound 0.00316 µM, first compound 0.1 µM
[5] = second compound 0.00316 µM, first compound 0.316 µM
[6] = second compound 0.00316 µM, first compound 1 µM
[7] = second compound 0.01 µM, first compound 0.00316 µM
[8] = second compound 0.01 µM, first compound 0.01 µM
[9] = second compound 0.01 µM, first compound 0.0316 µM
[10] = second compound 0.01 µM, first compound 0.1 µM
[11] = second compound 0.01 µM, first compound 0.316 µM
[12] = second compound 0.01 µM, first compound 1 µM
[13] = second compound 0.0316 µM, first compound 0.00316 µM
[14] = second compound 0.0316 µM, first compound 0.01 µM
[15] = second compound 0.0316 µM, first compound 0.0316 µM
[16] = second compound 0.0316 µM, first compound 0.1 µM
[17] = second compound 0.0316 µM, first compound 0.316 µM
[18] = second compound 0.0316 µM, first compound 1 µM
[19] = second compound 0.1 µM, first compound 0.00316 µM
[20] = second compound 0.1 µM, first compound 0.01 µM
[21] = second compound 0.1 µM, first compound 0.0316 µM
[22] = second compound 0.1 µM, first compound 0.1 µM
[23] = second compound 0.1 µM, first compound 0.316 µM
[24] = second compound 0.1 µM, first compound 1 µM
[25] = second compound 0.316 µM, first compound 0.00316 µM
[26] = second compound 0.316 µM, first compound 0.01 µM
[27] = second compound 0.316 µM, first compound 0.0316 µM
[28] = second compound 0.316 µM, first compound 0.1 µM
[29] = second compound 0.316 µM, first compound 0.316 µM
[30] = second compound 0.316 µM, first compound 1 µM
[31] = second compound 1 µM, first compound 0.00316 µM
[32] = second compound 1 µM, first compound 0.01 µM
[33] = second compound 1 µM, first compound 0.0316 µM
[34] = second compound 1 µM, first compound 0.1 µM
[35] = second compound 1 µM, first compound 0.316 µM
[36] = second compound 1 µM, first compound 1 µM
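Note: viability read after seven days of compound exposure.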

IC50 (second compound 0.00316 µM): 0.32 µM
IC50 (second compound 0.01 µM): 0.352 µM
IC50 (second compound 0.0316 µM): 0.539 µM
IC50 (second compound 0.1 µM): 0.377 µM
IC50 (second compound 0.316 µM): 0.361 µM
IC50 (second compound 1 µM): 0.31 µM
Compound: C=CC(=O)Nc1cc(Nc2nccc(-c3cn(C)c4ccccc34)n2)c(OC)cc1N(C)CCN(C)C + C=CC(=O)N1CCN(c2nc(OCC3CCCN3C)nc3c(F)c(-c4nc(N)cc(C)c4C(F)(F)F)c(Cl)cc23)C(C)C1
viability, T/C [1]: 93.5%
viability, T/C [2]: 90.7%
viability, T/C [3]: 80.1%
viability, T/C [4]: 82.9%
viability, T/C [5]: 49.8%
viability, T/C [6]: 38.9%
viability, T/C [7]: 91.6%
viability, T/C [8]: 84.5%
viability, T/C [9]: 83.5%
viability, T/C [10]: 76.4%
viability, T/C [11]: 50.6%
viability, T/C [12]: 38.1%
viability, T/C [13]: 91.1%
viability, T/C [14]: 88.2%
viability, T/C [15]: 74.4%
viability, T/C [16]: 67%
viability, T/C [17]: 51.5%
viability, T/C [18]: 46.8%
viability, T/C [19]: 87.8%
viability, T/C [20]: 84.5%
viability, T/C [21]: 90.4%
viability, T/C [22]: 75.8%
viability, T/C [23]: 53.4%
viability, T/C [24]: 34.1%
viability, T/C [25]: 87%
viability, T/C [26]: 94%
viability, T/C [27]: 77.2%
viability, T/C [28]: 70.2%
viability, T/C [29]: 52%
viability, T/C [30]: 35.5%
viability, T/C [31]: 90.3%
viability, T/C [32]: 78.7%
viability, T/C [33]: 84.9%
viability, T/C [34]: 71%
viability, T/C [35]: 49.7%
viability, T/C [36]: 32.5%

IC50 (second compound 0.00316 µM): 0.988 µM
IC50 (second compound 0.01 µM): 0.471 µM
IC50 (second compound 0.0316 µM): 0.697 µM
IC50 (second compound 0.1 µM): 0.764 µM
IC50 (second compound 0.316 µM): > 1 µM
IC50 (second compound 1 µM): 0.836 µM
Compound: CCN1CCN(Cc2ccc(Nc3ncc(F)c(-c4cc(F)c5nc(C)n(C(C)C)c5c4)n3)nc2)CC1 + C=CC(=O)N1CCN(c2nc(OCC3CCCN3C)nc3c(F)c(-c4nc(N)cc(C)c4C(F)(F)F)c(Cl)cc23)C(C)C1
viability, T/C [1]: 86.1%
viability, T/C [2]: 93.4%
viability, T/C [3]: 88.5%
viability, T/C [4]: 86.3%
viability, T/C [5]: 68.1%
viability, T/C [6]: 49.8%
viability, T/C [7]: 88.4%
viability, T/C [8]: 86.6%
viability, T/C [9]: 86.3%
viability, T/C [10]: 74.9%
viability, T/C [11]: 53.8%
viability, T/C [12]: 43%
viability, T/C [13]: 83.1%
viability, T/C [14]: 83.7%
viability, T/C [15]: 81.4%
viability, T/C [16]: 79.8%
viability, T/C [17]: 65.5%
viability, T/C [18]: 42.2%
viability, T/C [19]: 89.5%
viability, T/C [20]: 81%
viability, T/C [21]: 81.5%
viability, T/C [22]: 80%
viability, T/C [23]: 60.7%
viability, T/C [24]: 46.7%
viability, T/C [25]: 88.9%
viability, T/C [26]: 86%
viability, T/C [27]: 83.7%
viability, T/C [28]: 71.9%
viability, T/C [29]: 62.5%
viability, T/C [30]: 57.7%
viability, T/C [31]: 91.1%
viability, T/C [32]: 83.2%
viability, T/C [33]: 86.7%
viability, T/C [34]: 78.3%
viability, T/C [35]: 63.5%
viability, T/C [36]: 47.5%
